{"source": "patent US20100278787A1", "about": "“CARDIOMYOCYTE-LIKE CELL CLUSTERS DERIVED FROM HBS CELLS” (Cellartis AB, priority 2007, published 2010)", "key": {"[1]": {"test_system": "contracting clusters of cells", "assay": "Functional receptors: contractile activity of contracting areas after pharmacological agents (method of Norström et al. 2006)", "type": "cell-based, human", "conditions": "agents administered to contracting areas; method and Table 1 of Norström et al. 2006"}, "CMLC clusters": {"test_system": "CMLC clusters", "assay": "Transmembrane action potential (TAP) microelectrode recordings in beating CMLC", "type": "cell-based, human", "method": "Transmembrane action potentials (TAP) were recorded by using a microelectrode filled with 3 M KCl (resistance 10 to 20 MΩ) connected via an Ag/AgCl junction to a high impedance amplifier (Intracellular Electrometer IE-210, Warner Instrument Corporation). Sharp microelectrodes were prepared using a glass, and a micromanipulator was used to lower the electrode into the bath and enter the cluster. The same impalement was kept for as long as possible. […] Steady-state recordings of action potentials at spontaneous frequency or during electric stimulation of 1-4 Hz were made. All calculations were made on the average of 10 (consecutive) action potentials. The bath was continuously perfused with Tyrode's solution consisting of (in mmol/L) 130 NaCl, 4 KCl, 0.5 MgSO4.7H20, 1.8 NaH2PO4xH2O, 18 NaHCO3, 5.5 glucose, 1.8 CaCl2 and kept at 37° C.\nElectrical stimulation of the CMLC was done using field stimulation by means of a mobile electrode.\nChange in APD was calculated and used to determine prolongation and assess triangularization.\nTo investigate the role of the funny current (If) in spontaneously contracting CMLC, 10 μM zatebradine was administered."}, "hBS cells (SA002)": {"test_system": "hBS cells (SA002)", "assay": "Yield of beating CMLC from differentiating hBS cells, counted visually", "type": "cell-based, human", "conditions": "for Yield of beating CMLC compared to control cultures not receiving additional factors: 5 μM pre-plating in addition to Activin A 10 ng/ml and bFGF 12 ng/ml, day 7 after plating", "method": "Spontaneously contracting cells were derived from undifferentiated hBS cells cultured on MEF cells (Heins et al 2004 Stem Cells). The cell lines used for this experiment could be the hBS cell line SA002, SA121, SA001, SA002.5, SA461 (Cellartis AB, Goteborg, Sweden, http://www.cellartis.com) and they can be propagated as described Heins et al. 2004. These cell lines are listed in the NIH stem cell registry and the UK Stem Cell bank. The hBS cells were detached from the feeder layer by incubation with collagenase IV (200 U/ml), for 10-15 minutes at 37° C. The cell suspension was transferred to a 15 ml tube, and after the cells had sedimented, the supernatant was removed. The colonies were resuspended in Knock Out DMEM supplemented with 20% FBS, 1% penicillin-streptomycin, 1% Glutamax, 0.5 mmol/l β-mercaptoethanol and 1% non-essential amino acids (all from Invitrogen, Carlsbad, Calif.) and dissociated mechanically into small aggregates of undifferentiated cells (0.2-0.4 mm) using a pipette. This cell suspension was distributed (200 μl/well) into a 96-well v-bottom plate (Corning Incorporated, NY, USA) at a concentration of approximately 4-6 colonies per well and centrifuged for 5 min at 400×g. The plate was then incubated at 37° C. for 3-8 days. The 3D structures that formed were then transferred to gelatine coated dishes containing culture medium (same as above). After a couple of days (normally 1-4) of culture, spontaneously contracting areas with cluster of contracting cells (CMLC) occurred and could be visually identified using a light microscope. Medium was changed every second to third day. New spontaneously beating areas continued to appear for up to 20 days post-plating. The clusters are isolated by mechanical dissection under visual inspection using a light microscope from the 3D-structures and subjected to further characterization. […] These were then manually isolated from the surrounding cells and plated onto laminin coated glass. After three days in culture, the clusters were fixed and stained for nuclei and the protein cardiac troponin 1, which is known to be specific for cardiac tissue. These clusters were then examined with confocal microscopy.\nCMLC were derived from undifferentiated hBS cells (cell line SA002, LOTAL002, passage 21, 22, 44 and 51) essentially as described in Example 1. […]\nThe number of contracting CMLC was visually determined at day 6 or 7 after plating of formed 3D structures. […] The effect of the treatment on beating area characteristics was determined in terms of distribution in beating frequency, length, width, calculated area and structure in two experiments; one using plating medium with 20% FBS and one with plating medium containing 2% FBS. […]"}, "[2]": {"test_system": "spontaneously beating CMLC", "assay": "Visually registered contraction rate of spontaneously beating CMLC", "type": "cell-based, human", "conditions": "5 μM", "method": "FIG. 28. The effect of Zatebradine on the beating frequency of contracting CMLC derived from hBS cells. […] The change in beating frequency was calculated by visually registering the contraction rate before and after Zatebradine administration. Values are expressed as beats per minute±SEM, n=32, ***=p<0.001. Statistical significance was calculated using paired t-test. […] The mRNA expression of HCN4 and Troponin T2 was measured using real-time RT quantitative PCR and related to the expression of the endogenous control CREBBP. Values are expressed as relative gene expression as compared to a reference sample set to 100% (n=32). Statistical analysis was performed using linear regression analysis.\nCMLC were derived from undifferentiated hBS cells essentially as described in Example 1 using cell line SA002. Zatebradine is a substance known to block so called funny channels, e.i. hyperpolarization-activated, cyclic nucleotide-gated (HCN) channels 1-4, which are involved in the regulation of cardiomyocyte contraction and cardiac rate. In order to investigate the effect of Zatebradine on CMLC derived from hBS cells and to correlate this effect to age and gene expression, Zatebradine was administered at a concentration of 5 μM to 32 spontaneously beating clusters of different ages. […] Gene expression was quantified using real-time RT quantitative PCR. […]"}}}
{"molecule": "CC(CCc1ccccc1)NCC(O)c1ccc(O)c(C(N)=O)c1", "note": "(centres unmarked) [labetolol]", "values": [{"measurement": "Effect on contractile activity / contraction frequency", "setting": "[1]", "value": "reduction in the stimulation of contraction frequency exerted by adrenaline"}]}
{"molecule": "Cc1cccc(CCN2CCC(C(=O)c3ccc(NS(C)(=O)=O)cc3)CC2)n1", "note": "[E-4031]", "values": [{"measurement": "Action potential prolongation", "setting": "CMLC clusters; 0.5-1 μM E-4031, all CMLC phenotypes", "value": "concentration dependent action potential prolongation in all CMLC phenotypes"}, {"measurement": "Average change in percent of APD90", "setting": "CMLC clusters; atrial-like CMLC, 0.5 μM E-4031, spontaneous f", "value": "27.27 ± 7.61 (7) %"}, {"measurement": "Average change in percent of APD90", "setting": "CMLC clusters; atrial-like CMLC, 1 μM E-4031, spontaneous f", "value": "70.08 ± 25.91 (2) %"}, {"measurement": "Average change in percent of APD90", "setting": "CMLC clusters; nodal-like CMLC, 0.5 μM E-4031, spontaneous f", "value": "43.16 ± 21.00 (4) %"}, {"measurement": "Average change in percent of APD90", "setting": "CMLC clusters; ventricle-like CMLC, 0.5 μM E-4031, 1 Hz", "value": "34.89 ± 9.83 (4) %"}, {"measurement": "Average change in percent of APD90", "setting": "CMLC clusters; ventricle-like CMLC, 0.5 μM E-4031, 2 Hz", "value": "27.92 ± 9.23 (2) %"}, {"measurement": "Average change in percent of APD90", "setting": "CMLC clusters; ventricle-like CMLC, 0.5 μM E-4031, spontaneous f", "value": "16.67 ± 10.64 (5) %"}, {"measurement": "Average change in percent of APD90", "setting": "CMLC clusters; ventricle-like CMLC, 1 μM E-4031, 1 Hz", "value": "59.33 ± 31.28 (2) %"}, {"measurement": "Average change in percent of APD90", "setting": "CMLC clusters; ventricle-like CMLC, 1 μM E-4031, 2 Hz", "value": "38.14 ± 36.85 (3) %"}]}
{"molecule": "CC(C)NCC(O)COc1ccc(CC(N)=O)cc1", "note": "(centres unmarked) [atenolol]", "values": [{"measurement": "Effect on contractile activity / contraction frequency", "setting": "[1]", "value": "stimulatory effect is reduced within minutes"}]}
{"molecule": "LIF: protein growth factor supplemented at 1000 U/ml post-plating", "values": [{"measurement": "Yield of beating CMLC", "setting": "hBS cells (SA002); Activin A and bFGF pre-plating, LIF 1000 U/ml for 4 days post-plating, counted day 7 and day 14", "value": "further increased the generation of beating CMLC"}, {"measurement": "Improvement of yield compared to controls that only receive medium", "setting": "hBS cells (SA002); medium containing Activin A and/or bFGF supplemented with LIF post-plating, FIG. 14", "value": "~2", "unit": "fold"}]}
{"molecule": "CNC[C@H](O)c1cccc(O)c1", "note": "[Phenylephrine]", "values": [{"measurement": "Effect on contractile activity / contraction frequency", "setting": "[1]", "value": "stimulated in a dose-dependent manner"}]}
{"molecule": "Fc1ccc(-c2nc3n(c2-c2ccncc2)CCS3)cc1", "note": "[SKF-86002]", "values": [{"measurement": "Yield of beating CMLC compared to control cultures not receiving additional factors", "setting": "hBS cells (SA002)", "value": "~3", "unit": "times"}]}
{"molecule": "COc1ccc(CCN2CCC(Nc3nc4ccccc4n3Cc3ccc(F)cc3)CC2)cc1", "note": "[Astemizol]", "values": [{"measurement": "Delayed repolarisation of the cardiac field potentials", "setting": "hERG channel in CMLC; cumulative 0, 100 pM, 1 nM, 10 nM, 100 nM, 1000 nM", "value": "selective block and sustained prolongation of the repolarizing component at low nanomolar concentrations"}, {"measurement": "Delayed repolarization of the cardiac field potential", "setting": "hERG channel in CMLC; hES-CMC cluster on MEA, cumulative 0, 1 nM, 10 nM, 100 nM, 1 μM, 10 μM, FIG. 30", "value": "selective block and sustained prolongation of the repolarizing component at nanomolar concentrations"}]}
{"molecule": "CC(COc1ccccc1)N(CCCl)Cc1ccccc1", "note": "(centres unmarked) [phenoxybenzamine]", "values": [{"measurement": "Effect on contractile activity / contraction frequency", "setting": "[1]", "value": "reduce the contraction frequency"}]}
{"molecule": "COc1ccc(CCN(C)CCCN2CCc3cc(OC)c(OC)cc3CC2=O)cc1OC", "note": "[Zatebradine]", "values": [{"measurement": "Effect on action potential duration", "setting": "CMLC clusters; 10 μM Zatebradine, FIG. 21", "value": "increased duration"}, {"measurement": "Effect on beating frequency", "setting": "CMLC clusters; 10 μM Zatebradine, FIG. 21", "value": "slowed beating frequency"}, {"measurement": "Beating of some clusters", "setting": "[2]", "value": "completely blocked"}, {"measurement": "Decrease of the beating frequency of CMLC, on average", "setting": "[2]; 32 spontaneously beating clusters of different ages", "value": "about 50%"}]}
{"molecule": "Cn1cc(C2=C(c3ccc(Cl)cc3Cl)C(=O)NC2=O)c2ccccc21", "note": "[SB 216763]", "values": [{"measurement": "Yield of beating CMLC compared to control cultures not receiving additional factors", "setting": "hBS cells (SA002)", "value": "~3", "unit": "times"}]}
{"molecule": "CNCC(O)c1ccc(O)c(O)c1", "note": "(centres unmarked) [Adrenaline]", "values": [{"measurement": "Effect on contractile activity / contraction frequency", "setting": "[1]", "value": "stimulatory effect is registered within minutes"}]}
{"molecule": "COc1cc(N)c(Cl)cc1C(=O)NC1CCN(CCCOc2ccc(F)cc2)CC1OC", "note": "(centres unmarked) [Cisapride]", "values": [{"measurement": "Field action potential duration (indicator of QT prolongation)", "setting": "hERG channel in CMLC; increasing drug concentrations, FIGS. 5c and 5d", "value": "dose dependent prolongation of the action potential"}]}
{"molecule": "NC[C@H](O)c1ccc(O)c(O)c1", "note": "[Noradrenaline]", "values": [{"measurement": "Effect on contractile activity / contraction frequency", "setting": "[1]", "value": "stimulates contractile activity normally in a concentration-response manner"}]}
